{"source": "patent US8956555B2", "about": "“Silylethynyl pentacene compounds and compositions and methods of making and using the same” (3M Innovative Properties Company, priority 2008, dated 2015)", "experiment": "Solubility in organic solvent (toluene)", "format": "physicochemical"}
{"smiles": "C=CC[Si](C#Cc1c2cc3ccccc3cc2c(C#C[Si](CC=C)(C(C)C)C(C)C)c2cc3ccccc3cc12)(C(C)C)C(C)C", "note": "[Compound I, 6,13-bis(allyldiisopropylsilylethynyl)pentacene]", "values": [{"measurement": "solubility in toluene", "result": "greater than 21 wt %"}]}
